Data as given in US20190337924A1, “SUBSTITUTED HYDANTOIN AND THIOHYDANTOIN DERIVATIVES AS ANDROGEN RECEPTOR ANTAGONISTS” (Janssen Pharmaceutica NV, priority 2016, published 2019).
Structures can show the parent of a compound that is named as a salt. Where two headings read alike, the source gives them in different places.

Legend:
[1] = target: T1, wild-type Androgen Receptor (AR-wt) (Homo sapiens, UniProt P10275); test: AR reporter assay, LNCaP-AR-wt AG (agonist mode); type: cell-based; conditions: for Emax: read-out: LNCaP-AR-wt AG MAX % Stim
T1 construct: expressed in transfected cells; host or cells: LNCaP
T1 sequence (P10275 1-920): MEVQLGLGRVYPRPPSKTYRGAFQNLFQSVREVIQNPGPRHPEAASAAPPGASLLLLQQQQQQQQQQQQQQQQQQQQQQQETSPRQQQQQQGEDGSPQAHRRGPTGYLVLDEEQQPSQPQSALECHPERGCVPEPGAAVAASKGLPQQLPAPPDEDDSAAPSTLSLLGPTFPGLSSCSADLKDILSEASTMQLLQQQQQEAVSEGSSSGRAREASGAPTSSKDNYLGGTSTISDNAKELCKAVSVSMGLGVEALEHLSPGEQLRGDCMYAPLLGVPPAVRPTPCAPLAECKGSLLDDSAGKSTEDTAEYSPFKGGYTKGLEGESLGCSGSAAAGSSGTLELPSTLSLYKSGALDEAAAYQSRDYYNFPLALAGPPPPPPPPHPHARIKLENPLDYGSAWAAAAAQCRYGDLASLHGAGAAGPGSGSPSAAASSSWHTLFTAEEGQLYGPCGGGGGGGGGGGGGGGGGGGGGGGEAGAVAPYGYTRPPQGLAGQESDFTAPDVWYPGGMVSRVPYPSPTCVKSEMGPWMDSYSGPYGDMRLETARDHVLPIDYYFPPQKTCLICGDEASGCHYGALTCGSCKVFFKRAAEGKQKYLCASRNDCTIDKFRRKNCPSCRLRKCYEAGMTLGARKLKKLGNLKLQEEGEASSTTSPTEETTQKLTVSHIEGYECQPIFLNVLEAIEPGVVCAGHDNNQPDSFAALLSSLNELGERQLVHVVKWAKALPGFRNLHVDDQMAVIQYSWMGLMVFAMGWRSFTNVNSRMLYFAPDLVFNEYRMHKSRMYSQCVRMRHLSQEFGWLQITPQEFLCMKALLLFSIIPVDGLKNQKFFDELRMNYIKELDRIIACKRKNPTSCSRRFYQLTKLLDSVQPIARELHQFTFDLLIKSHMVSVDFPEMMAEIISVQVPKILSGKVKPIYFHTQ
From the text: LNCaP AR (cs) and LNCaP F876L luciferase cell lines were generated by transduction of each cell line (description of cell line generation Joseph J D, Lu N, Qian J, Sensintaffar J, Shao G, Brigham D, Moon M, Maneval E C, Chen I, Darimont B, Hager J H. A clinically relevant androgen receptor mutation confers resistance to second-generation antiandrogens enzalutamide and ARN-509. Cancer Discov 2013; 3:1020-1029) with an Androgen Response Element Firefly Luciferase lentiviral construct at an MOI (multiplicity of infection) of 50 following the manufacturer's instructions (Qiagen). A stable pooled-population cell line was generated using puromycin (Life Technologies) selection at 1:10,000 v/v. The protocol below was used for both cell lines and for testing of the compounds of Formula (I) of the present invention.
LNCaP cells were grown to about 80% confluence, media removed and cells rinsed in Hank's balanced salt solution prior to separation from the plate with 0.05% Trypsin EDTA. Cells were lifted and trypsin negated in complete CSS (charcoal stripped serum) culture media. CSS was maintained on cells for 24 h prior to assay, at which time 5,000 cells/[…] were seeded in Greiner 384 well White/White Tissue Culture Treated Plates and incubated for a further 1-2 hours at 37° C., 5% CO2, prior to addition of 10 μL of 4× Test Compounds (compounds described herein) or Assay Controls (all diluted in complete media containing 10% css). A further 10 μL of 4× R-1881 Agonist Challenge (antagonist assay) or Buffer (agonist assay) was then added (all diluted in complete media containing 10% css). Agonist challenge was at 400 pM for WT assay and 600 pM for F876L assay. Plates containing cells and compounds herein were incubated for a further 20-24 hours at 37° C., 5% CO2 before addition of 40 μL/well of Steady-Glo Luciferase Assay System Reagent (Promega#E2520). After 1 h, plates were read for luminescence on a BMG Pherastar.
((Sample RLU−Ave Low Control RLU[DMSO/Buffer])/(Ave High Control RLU [1 μM R-1881]—Ave Low Control RLU[DMSO/Buffer]))*100.
EC/IC50 calculations were achieved utilizing calculated RLU data and data fitting macros. Data were fit using least-squares methods to the following formula: […]
As used herein: • pIC50 is defined as −Log10(IC50 expressed in [Molar]). • pEC50 is defined as −Log10(EC50 expressed in [Molar]). • MAX % Inh is defined as the maximum % inhibition of R1881 control response observed for a compound over the tested concentration range. • MAX % Stim is defined as the maximum % stimulation (agonist response) observed for a compound over the tested concentration range. • LNCaP-AR-wt ANT refers to the reporter assay using LNCaP cells stably transfected with the Androgen Response Element Firefly Luciferase lentiviral construct and wild-type Androgen Receptor (AR-wt) in Antagonist mode. • LNCaP-AR-wt AG refers to the reporter assay using LNCaP cells stably transfected with the Androgen Response Element Firefly Luciferase lentiviral construct and wild-type Androgen Receptor (AR-wt) in Agonist mode. • LNCaP-AR-F876L ANT refers to the reporter assay using LNCaP cells stably transfected with the Androgen Response Element Firefly Luciferase lentiviral construct and F876L mutant Androgen Receptor (AR-F876L) in Antagonist mode. • LNCaP-AR-F876L AG refers to the reporter assay using LNCaP cells stably transfected with the Androgen Response Element Firefly Luciferase lentiviral construct and F876L mutant Androgen Receptor (AR-F876L) in Agonist mode.

LNCaP WT = test: LNCaP Proliferation Assay, LNCaP WT; type: cell-based; conditions: Homo sapiens, 96 h, 1% CSS, 4 days, CellTiter-Glo, normalized to 0.1 nM R1881 stimulation
Protocol: LNCaP cells were expanded in RPMI 10% FBS in T150 flasks. The cells were dislodged with 0.25% Trypsin, washed in complete media, centrifuged (300 g, 3 min), and the supernatant aspirated. The cells were resuspended in RPMI phenol-red free media with 1% charcoal-stripped serum (CSS) and counted using a ViCELL (Beckman-Coulter). 7500 cells were added to each well of a white optical bottom 384-well plate and incubated for 2 days at 37° C. 5% CO2. Compound dilutions were prepared in RPMI CSS using 50 mM stock solutions and added to the cells either alone (agonist mode) or in combination with 0.1 nM R1881 (antagonist mode). The plates were incubated for 4 days, followed by addition of CellTiter-Glo Luminescent Cell Viability kit reagent (Promega). The plates were placed on a shaker at 3000 rpm for 10 minutes and then read on an EnVision plate reader (Perkin Elmer) using Luminescence assay default settings. The data was analyzed, normalized to 0.1 nM R1881 stimulation, and plotted in GraphPad Prism.

SMILES	EC50 [1] [µM]	Emax [1] [%]	IC50 (LNCaP WT) [µM]	EC50 ([1]; agonist mode (buffer, no R-1881), -Log10(EC50 in Molar), read-out: LNCaP-AR-wt AG pEC50 (converted)) [µM]
N#Cc1ccc(N2C(=O)C3(CCC3)N(c3ccc(OC4CCNCC4)nc3)C2=S)cc1C(F)(F)F [Compound 13, 4-(8-Oxo-5-(6-(piperidin-4-yloxy)pyridin-3-yl)-6-thioxo-5,7-diazaspiro[3.4]octan-7-yl)-2-(trifluoromethyl)benzonitrile hydrochloride]	> 15.1	0.5	109	–
CN1CCC(Oc2ccc(N3C(=S)N(c4ccc(C#N)c(C(F)(F)F)c4)C(=O)C34CCC4)cn2)CC1 [Compound 14, 4-(5-(6-((1-Methylpiperidin-4-yl)oxy)pyridin-3-yl)-8-oxo-6-thioxo-5,7-diazaspiro[3.4]octan-7-yl)-2-(trifluoromethyl)benzonitrile]	> 15.1	0.2	2.44	–
N#Cc1ccc(N2C(=O)C3(CCC3)N(c3cnc(OC4CCNCC4)nc3)C2=S)cc1C(F)(F)F [Compound 15, 4-(8-Oxo-5-(2-(piperidin-4-yloxy)pyrimidin-5-yl)-6-thioxo-5,7-diazaspiro[3.4]octan-7-yl)-2-(trifluoromethyl)benzonitrile]	> 15.1	-0.2	3.43	–
Cc1cc(N2C(=O)C3(CCC3)N(c3ccc(OC4CCN(C)CC4)nc3)C2=S)ccc1C#N [Compound 18, 2-Methyl-4-(5-(6-((1-methylpiperidin-4-yl)oxy)pyridin-3-yl)-8-oxo-6-thioxo-5,7-diazaspiro[3.4]octan-7-yl)benzonitrile]	–	0.6	1.53	> 15.1
COc1cc(N2C(=O)C3(CCC3)N(c3ccc(OC4CCN(C)CC4)cc3)C2=S)ccc1C#N [Compound 19, 2-Methoxy-4-(5-(4-((1-methylpiperidin-4-yl)oxy)phenyl)-8-oxo-6-thioxo-5,7-diazaspiro[3.4]octan-7-yl)benzonitrile]	> 15.1	-0.1	27.4	–
COc1cc(N2C(=O)C3(CCC3)N(c3ccc(OC4CCN(C)CC4)nc3)C2=S)ccc1C#N [Compound 20, 2-Methoxy-4-(5-(6-((1-methylpiperidin-4-yl)oxy)pyridin-3-yl)-8-oxo-6-thioxo-5,7-diazaspiro[3.4]octan-7-yl)benzonitrile]	> 15.1	-0.1	3.65	–
N#Cc1ccc(N2C(=O)C3(CCC3)N(c3ccc(OC4CCNCC4)cc3)C2=S)cc1Cl [Compound 21, 2-Chloro-4-(8-oxo-5-(4-(piperidin-4-yloxy)phenyl)-6-thioxo-5,7-diazaspiro[3.4]octan-7-yl)benzonitrile]	> 15.1	0.1	2.23	–
CN1CCC(Oc2ccc(N3C(=S)N(c4ccc(C#N)c(Cl)c4)C(=O)C34CCC4)cc2)CC1 [Compound 22, 2-Chloro-4-(5-(4-((1-methylpiperidin-4-yl)oxy)phenyl)-8-oxo-6-thioxo-5,7-diazaspiro[3.4]octan-7-yl)benzonitrile]	> 15.1	-0.2	2.83	–
N#Cc1ccc(N2C(=O)C3(CCC3)N(c3ccc(OC4CCNCC4)nc3)C2=S)cc1Cl [Compound 23, 2-Chloro-4-(8-oxo-5-(6-(piperidin-4-yloxy)pyridin-3-yl)-6-thioxo-5,7-diazaspiro[3.4]octan-7-yl)benzonitrile hydrochloride]	> 15.1	0.9	3.19	–
